The source of these data is ChEMBL document CHEMBL3352740, “Pyrrolopyrimidine Analogues as MKNK Inhibitors” (ACS Med Chem Lett, 2015).

The target in this assay is MAP kinase-interacting serine/threonine-protein kinase 1 (Homo sapiens, UniProt Q9BUB5). Put plainly: Inhibition of human full-length MKNK1 using biotin-Ahx-IKKRKLTRRKSLKG substrate by TR-FRET-based high ATP assay.
Chain of MAP kinase-interacting serine/threonine-protein kinase 1 (Q9BUB5 whole entry): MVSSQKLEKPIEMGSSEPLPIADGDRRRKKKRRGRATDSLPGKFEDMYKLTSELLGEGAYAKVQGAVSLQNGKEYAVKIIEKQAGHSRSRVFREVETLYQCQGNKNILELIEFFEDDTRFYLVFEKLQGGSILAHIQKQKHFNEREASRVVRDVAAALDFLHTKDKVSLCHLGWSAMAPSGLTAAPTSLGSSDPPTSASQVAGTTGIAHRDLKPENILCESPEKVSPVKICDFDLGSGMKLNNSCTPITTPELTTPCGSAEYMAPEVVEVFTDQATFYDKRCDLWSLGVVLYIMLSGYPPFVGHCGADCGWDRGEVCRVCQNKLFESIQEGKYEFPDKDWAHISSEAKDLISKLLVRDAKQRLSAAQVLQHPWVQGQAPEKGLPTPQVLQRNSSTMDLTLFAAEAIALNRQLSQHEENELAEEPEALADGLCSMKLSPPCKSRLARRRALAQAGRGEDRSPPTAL
The compound `COc1cc(Cl)c(Cl)cc1Nc1ncnc2[nH]c3c(c12)CC(C(=O)NC1CC1)CC3` (stereo unspecified) showed an IC50 of 6 nM.

As for `CC(C)Oc1cc2[nH]ncc2cc1Nc1ncnc2[nH]c3c(c12)CCCC3`, it took 5 nM to reach half-maximal inhibition (IC50). To `CCNC(=O)C1CCc2[nH]c3ncnc(Nc4cc5cn[nH]c5cc4OC)c3c2C1` (stereo unspecified) belongs 6 nM; to `COc1cc2[nH]ncc2cc1Nc1ncnc2[nH]c3c(c12)CC(C(=O)NCc1ccccc1)CC3` (stereo unspecified), 1 nM; to `O=C1OCCOc2cc(F)ccc2Nc2ncnc3[nH]c4c(c23)CC1CC4` (stereo unspecified), 3540 nM. In turn, `CC(C)Oc1cc2[nH]ncc2cc1Nc1ncnc2[nH]c3c(c12)CC(C(=O)NCCCS(C)(=O)=O)CC3` (stereo unspecified) returned an IC50 of 1 nM. This IC50 lies about 3500-fold lower than the previous one.

As usually defined, the IC50 is the concentration needed to halve the response being measured. Lower therefore signals greater potency.
